Values after ≈ are worked out from the molar mass of the structure shown. Values joined by “and” are separate entries in the source; they are usually repeats but may differ in a detail not shown here. Identical values can stand only once. Like-named read-outs stand apart in the source and are kept apart here. Marks after values point to notes of the source that are not given here.
Columns and labels:
[1] = Kinetic solubility estimate, solvent aliquot addition, visual observation; type: physicochemical
Protocol: A polymorph screen was conducted using amorphous Compound 1. To help design the experiments, kinetic solubilities of the compound were estimated. The estimation was done using a solvent aliquot addition method, and dissolution was judged by visual observation. In Table 14, solvent ratios (v/v) are approximate; values are rounded to nearest whole number. If complete dissolution was achieved by one aliquot addition, solubilities were reported as “>”; if […], solubilities were reported as “<”. The actual solubility may be larger than the value calculated due to the use of solvent aliquots that were too large or due to a slow rate of dissolution.
A polymorph screen was conducted using Compound 1 Fumarate Form A Ethyl Acetate Solvate. The screen consisted primarily of long term slurry experiments. To help design screen experiments, kinetic solubilities of Fumarate Form A Ethyl Acetate Solvate were estimated. The estimation was done on a 3-11 mg scale using a solvent aliquot addition method, and dissolution was judged by visual observation. Solubilities are estimated at ambient temperature and reported to the nearest mg/mL; if complete dissolution was achieved by one aliquot addition, solubilites were reported as […]

[2] = Pharmacokinetic study in Beagle dogs, oral capsule; type: in vivo; conditions: for AUClast/D / AUC∞/D: dose-normalised
Protocol: Compound 1 […] in two different forms was administered orally (PO) to male and female Beagle dogs. Blood was serially collected up to 144 hours post dose for determination of plasma pharmacokinetic analysis.
Animals were healthy at the start of the study and were between 1 and 6.5 years of age. Initial body weights were recorded at the start of the study and general health observations were recorded at each blood collection time point.
Each Group contained 3 male and 1 female dog. Capsules were administered by placing the capsule to the back of the throat, followed by a 10 mL flush with drinking water.
Plasma concentrations of Compound 1 were determined by LC-MS/MS. Pharmacokinetic parameters were determined using Phoenix WinNonlin (v8.0) non-compartmental analyses.

[3] = Solubility by dynamic method; type: physicochemical; conditions: for solubility at 15 min: organic solvent or mixture, thermodynamic from solid; for solubility at 15 min / Solubility: Dynamic
Protocol: […] Solubility was measured by the dynamic method and gravimetric method.
Dynamic method: Under the condition of a certain amount of solute and certain temperature, solvent was gradually added with stirring for 15 min to reach equilibrium. When solute is completely dissolved, amount of solvent was recorded and the solubility calculated.

[4] = Dynamic vapor sorption (DVS) hygroscopicity; type: physicochemical; conditions: for Form Change after DVS?: XRPD before and after DVS
Protocol: Dynamic Vapor Sorption (DVS) was measured by a SMS (Surface Measurement Systems) DVS Intrinsic. Parameters for DVS test are listed below:
Alternatively, DVS was performed using Intrinsic DVS ([…], UK). About 30-50 mg of sample was placed in a sample basked and hung in the measuring chamber. For an isotherm test, the chamber temperature is maintained by a water bath at a constant 25±1° C. The sample was tested at a targeted RH from 0 to 90% full cycle in step mode. The analysis was performed in 10% RH increments. Time duration at each RH was set as 60 min so that the sample could reach equilibrium with the chamber environment. Data were collected in 20 s increments.
A DVS isotherm plot was collected at 25° C. to investigate the solid form stability as a function of humidity. For Compound 1 Fumarate Form A Anhydrate, solids were pre-equilibrated at 0% RH to remove the unbounded solvent or water before the hygroscopicity experiment was started.

[5] = Stability in oven at 60° C. for two weeks; type: physicochemical; conditions: for HPLC Purity (%) Starting: before storage; for XRPD: form after oven at 60° C. for two weeks
Protocol: Amorphous Compound 1, Compound 1 Fumarate Form E, and Compound 1 Fumarate Form A Anhydrate were placed in an oven at 60° C. for two weeks to evaluate their stability.

[6] = Solid form change on heating (XRPD); type: physicochemical
[7] = Solubility by gravimetric method; type: physicochemical; conditions: H2O, 25° C.
Protocol: Solubility studies of Compound 1 and Compound 1 Fumarate in different solvents at 25° C. were performed. Solubility was measured by the dynamic method and gravimetric method.
Gravimetric method: Excess solids and a certain amount of solvent were added 8 mL vials, stirred for 24 hours, and filtered.

[8] = Competitive slurry of Fumarate Form E and Fumarate Form A Anhydrate (XRPD); type: physicochemical
Protocol: Competitive slurry experiments were performed with Compound 1 Fumarate Form E and Compound 1 Fumarate Form A Anhydrate, as follows:
Experiment #1: Compound 1 Fumarate Form E (100 mg), Compound 1 Fumarate Form A Anhydrate (100 mg), and isopropanol (2 mL) were added into two 8-mL vials and mixed well in a shaker at 25° C. and 40° C., respectively. Samples for analysis were taken at 24 h and 72 h.
Experiment #2: Compound 1 Fumarate Form E (100 mg), Compound 1 Fumarate Form A Anhydrate (100 mg), and water (2 mL) were added into two 8-mL vials and mixed well in a shaker at 25° C. and 40° C., respectively. Samples for analysis were taken at 24 h and 72 h.
Experiment #3: Compound 1 Fumarate Form E (100 mg), Compound 1 Fumarate Form A Anhydrate (100 mg), and ethyl acetate (2 mL) were added into two 8-mL vials and mixed well in a shaker at 25° C. and 40° C., respectively. Samples for analysis were taken at 24 h and 72 h.

[9] = Bulk density in graduated cylinder; type: physicochemical
Protocol: Bulk density of Compound 1 Fumarate Form E was measured by gently introducing a known sample mass into a graduated cylinder (50 mL), leveling the powder without compacting it, and recording the apparent untapped volume to the nearest graduated unit.

[10] = dose 5.34 mg/kg (Group 1), 7.4 mg/kg (Group 2), plasma
[11] = both sexes, dog, dose 5.34 mg/kg (Group 1), 7.4 mg/kg (Group 2), plasma

CCCN1CC(Oc2ccc([C@@H]3c4[nH]c5ccccc5c4C[C@@H](C)N3CC(C)(C)F)cc2)C1.O=C(O)/C=C/C(=O)O
Solubility ([1]; ambient temperature, 2-BuOH): 17 mg/mL | Solubility ([1]; ambient temperature, 2-McTHF): 32 mg/mL | Solubility (mg/mL) ([1]; ambient temperature, ACN, re-precipitated after first aliquot): <2* mg/mL | Solubility ([1]; ambient temperature, Anisole): <1 mg/mL | Solubility ([1]; ambient temperature, DCE): <9 mg/mL | Solubility (mg/mL) ([1]; ambient temperature, DCE/EtOH (96/4)): Dissolved at 8 mg/mL | Solubility ([1]; ambient temperature, Dioxane): >104 mg/mL | Solubility ([1]; ambient temperature, IPA): 20 mg/mL | Solubility ([1]; ambient temperature, IPA/water (50/50)): >124 mg/mL | Solubility ([1]; ambient temperature, MIBK): 4 mg/mL | Solubility ([1]; ambient temperature, MTBE): 2 mg/mL | Solubility ([1]; ambient temperature, TFE): >100 mg/mL | Solubility (mg/mL) ([1]; ambient temperature, t-BuOAc, re-precipitated after first aliquot): 1* mg/mL | AUC∞ ([2]; dose 5.34 mg/kg (Group 1), 7.4 mg/kg (Group 2)): 17271 ng·h/mL | MRTlast [2, 10]: 39.8 h | t1/2 [2, 10]: 49.6 h | tmax [2, 10]: 3.5 h | AUClast/D [2]: 2001 kg·ng·h/mL/mg | AUC∞/D [2]: 2351 kg·ng·h/mL/mg

CCCN1CC(Oc2ccc([C@@H]3c4[nH]c5ccccc5c4C[C@@H](C)N3CC(C)(C)F)cc2)C1 [Amorphous Compound 1]
Solubility ([1]; aqueous with cosolvent or surfactant or cyclodextrin, thermodynamic from solid, amorphous Compound 1, 2-MeTHF/MeOH/water (60/20/20), read-out: Solubility): 106 mg/mL (≈ 236 mM) | Solubility ([1]; aqueous with cosolvent or surfactant or cyclodextrin, thermodynamic from solid, amorphous Compound 1, ACN/water (60/40), read-out: Solubility): < 6 mg/mL | Solubility ([1]; aqueous with cosolvent or surfactant or cyclodextrin, thermodynamic from solid, amorphous Compound 1, Dioxane/water (60/40), read-out: Solubility): < 13 mg/mL | Solubility ([1]; aqueous with cosolvent or surfactant or cyclodextrin, thermodynamic from solid, amorphous Compound 1, MeOH/water (40/60), appeared hydrophobic, read-out: Solubility): < 55 mg/mL | Solubility ([1]; aqueous with cosolvent or surfactant or cyclodextrin, thermodynamic from solid, amorphous Compound 1, NMP/water (68/32), read-out: Solubility): 7 mg/mL (≈ 15.6 mM) | Solubility ([1]; organic solvent or mixture, thermodynamic from solid, amorphous Compound 1, Heptane, read-out: Solubility): > 191 mg/mL | Solubility ([1]; organic solvent or mixture, thermodynamic from solid, amorphous Compound 1, IPA, read-out: Solubility): 82 mg/mL (≈ 182 mM) | Cmax [2, 11]: 343 ng/mL | MRT last [2, 11]: 37.8 h | half-life [2, 11]: 56.4 h | tmax ([2]; both sexes, dog, dose 5.34 mg/kg (Group 1), 7.4 mg/kg (Group 2), plasma, read-out: tmax): 3.25 h | AUC(0-inf) ([2]; both sexes, dog, plasma, dose 5.34 mg/kg (Group 1), 7.4 mg/kg (Group 2)): 8960 ng·h/mL | AUC(0-t) ([2]; both sexes, dog, plasma, dose 5.34 mg/kg (Group 1), 7.4 mg/kg (Group 2), up to 144 hours): 7460 ng·h/mL | AUClast/D [2]: 1297 kg·ng·h/mL/mg | AUC∞/D [2]: 1527 kg·ng·h/mL/mg | solubility in isopropanol ([3]; 25° C.): high solubility | solubility at 15 min ([3]; IPA, 25° C.): > 468 mg/mL | Form Change after DVS? ([4]; listed as Amorphous Freebase): No | Hygroscopicity (%)* (class) ([4]; based on water uptake at 25° C./80% RH): Slightly | Hygroscopicity (%)* (water uptake) ([4]; water uptake at 25° C./80% RH): (0.463) % | HPLC Purity (%) Starting [5]: 99.23% | XRPD [5]: No change | HPLC Purity (%) 60° C. ([5]; oven at 60° C. for two weeks): 98.94% | HPLC Purity (%) Degradation ([5]; oven at 60° C. for two weeks): −0.29%

CCCN1CC(Oc2ccc([C@@H]3c4[nH]c5ccccc5c4C[C@@H](C)N3CC(C)(C)F)cc2)C1 [Compound 1 Form A Acetonitrile Solvate]
form after heating (XRPD) ([6]; heating to 70° C. and 80° C.): became amorphous | hygroscopicity by DVS ([4]; DVS): slightly hygroscopic | water uptake (DVS) ([4]; DVS, FIG. 4): 1.9% | Form Change after DVS? [4]: same crystalline pattern after DVS

CCCN1CC(Oc2ccc([C@@H]3c4[nH]c5ccccc5c4C[C@@H](C)N3CC(C)(C)F)cc2)C1 [Compound 1 Form B]
form after heating (XRPD) ([6]; heating to 100° C.): became amorphous

CCCN1CC(Oc2ccc([C@@H]3c4[nH]c5ccccc5c4C[C@@H](C)N3CC(C)(C)F)cc2)C1.O=C(O)/C=C/C(=O)O [Compound 1 Fumarate Form E]
Solubility [7]: 1.0 mg/mL | competitive slurry outcome (XRPD) ([8]; ethyl acetate, 72 h at 25° C. or 40° C.): a mixture of Compound 1 Fumarate Form E and Compound 1 Fumarate Form A Anhydrate remained | competitive slurry outcome (XRPD) ([8]; isopropanol, 24 h at 25° C. or 40° C.): more stable than Form A in isopropanol | competitive slurry outcome (XRPD) ([8]; water, 72 h at 25° C. or 40° C.): a mixture of Compound 1 Fumarate Form E and Compound 1 Fumarate Form A Anhydrate remained | Bulk Density (g/mL), Average ([9]; average of three runs): 0.1239 g/mL | Bulk Density ([9]; untapped, runs 1-3): 0.1288 g/mL and 0.1233 g/mL and 0.1196 g/mL | Solubility ([3]; IPA/heptane (1/1), 25° C.): ~2.35 mg/mL | Solubility ([3]; IPA/heptane (1/3), 25° C.): <1 mg/mL | Solubility ([3]; IPA/heptane (5/1), 25° C.): 5.89 mg/mL | Solubility ([3]; IPA/heptane (5/3), 25° C.): ~3.57 mg/mL | Solubility ([3]; IPA, 0° C.): <1 mg/mL | Solubility ([3]; IPA, 25° C.): ~8.46 mg/mL | solubility in isopropanol ([3]; 25° C.): very low solubility | hygroscopicity by DVS ([4]; DVS): not hygroscopic | HPLC Purity (%) Starting [5]: 99.54% | XRPD [5]: No change | HPLC Purity (%) 60° C. ([5]; oven at 60° C. for two weeks): 99.50% | HPLC Purity (%) Degradation ([5]; oven at 60° C. for two weeks): −0.05% | stability relative to Amorphous Compound 1 ([5]; oven at 60° C. for two weeks): improved stability

O=C(O)/C=C/C(=O)O [Fumaric acid]
solubility in isopropanol ([3]; 25° C.): relatively low solubility | solubility at 15 min ([3]; IPA, 25° C.): 34.3 mg/mL (≈ 296 mM)
